The values that follow come from patent US20050142068A1, “Retinal toxicity screening methods” (Pfizer Inc, priority 2003, published 2005).

Structures are written as SMILES.

One series has as its system retina. The conditions noted are these: literature reports; cited from earlier work.
A further series has as its system RPE-J cells. Nature of the series: Assay to identify retinal toxic agents: integrin marker fluorescence in RPE-J cells, confocal microscopy. Type of series: cell-based, rat. The conditions noted are these: 50 nM integrin marker, one hour. An excerpt: For each figure, the photomicrograph on the left is made using two excitation wavelengths—488 nm (argon laser) for the integrin marker peptide and 633 nm (HeNe laser) for TOTO®-3 iodide. The integrin peptide marker fluoresces at 520 nm and TOTO®-3 iodide fluoresces at 660 nm. The photomicrograph on the right is of the identical cells as those in the left micrograph, but under 488 nm excitation alone.
RPE-J cells were plate cultured in high glucose DMEM medium (cat. no. 10313021, Invitrogen, Carlsbad, Calif.) containing 4% fetal calf serum (cat. no. 12319018, Invitrogen) at 33° C. under 5-10% CO2 atmosphere. When confluence of about 80% was reached (after about seven days), the medium was removed from the culture dish and the cells on the bottoms were washed with 0.25% trypsin-EDTA (cat. no. 25200056, Invitrogen) for three and one-half to five minutes. Following trypsinization the cells were centrifuged at 500-600 RPM for five minutes and resuspended in high glucose DMEM medium containing 4% fetal calf serum. The cells were plated in a four-chamber slide (1.7 cm^2 per chamber) at 50,000 cells per chamber. When confluence of about 80% was reached, the cells were gently wash the cells in warm phosphate buffered saline. […] Fluorescence was detected at 520 nm for the integrin marker peptide and at 660 nm for TOTO®-3 iodide.

Take `CN(C)CCCN1c2ccccc2Sc2ccc(Cl)cc21` [chlorpromazine]: the “damage to the retina reported as a result of exposure” value in the series on retina is “retinopathy”.

Regarding `CCN(CC)CCCC(C)Nc1ccnc2cc(Cl)ccc12` (stereo not shown) [cloroquine], the “damage to the retina reported as a result of exposure” value in the series with retina is on record as “retinopathy”.

For the compound `CC/C(=C(\c1ccccc1)c1ccc(OCCN(C)C)cc1)c1ccccc1` [tamoxifen], the “visibility of integrin peptide marker fluorescence” value with RPE-J cells (1 μM tamoxifen, 488 nm excitation (FIG. 3)) was “clearly visible”; with RPE-J cells (25 μM tamoxifen, 488 nm excitation (FIG. 4)) it was “highly visible”.
